This note sets out measurements from patent US4468403A, “Analgesic substituted piperidylidene-2-sulfon(cyan)amide derivatives” (priority 1982, dated 1984).

This test is classed as in vivo, male Swiss albino mice. Particulars: for Analgesic action, inhibition action on phenylquinone writhing, % inhibition / Analgesic action, inhibition action on phenylquinone writhing: dose giving 50 % inhibition: subcutaneous; for Analgesic action, inhibition action on phenylquinone writhing: dose giving 50 % inhibition: 30 min before phenyl-p-benzoquinone, dose with 50 % inhibition; for Analgesic (agonist) activity, in words: phenylquinone writhing, mice; for % Inhibn, control (single agent) in antagonist study: alone. The protocol:
The percent change is calculated according to the following equation: % change=100- (no. of writhes in treated group/no. of writhes in control group)×100.

[1] abbreviates: at the dose listed for the substance under E1.

Read-outs that look alike come from different tables or passages of the source.

For `Nc1ccc(S(=O)(=O)N=C2CCCCN2CC2CCC2)cc1` [Compound W-24, 1-Cyclobutylmethylpiperidylidene-2-(4-aminophenyl)sulfonamide], under “dose 0.20 mg/kg”, the “Analgesic action, inhibition action on phenylquinone writhing, % inhibition” value is 61%.
Consider `CC(=O)Oc1ccccc1C(=O)O` [Aspirin (TM), reference compound], for which the “Analgesic action, inhibition action on phenylquinone writhing: dose giving 50 % inhibition” value (“Analgesic action … dose giving 50 % inhibition” below) is given as 50.0 mg/kg. For the same compound, the “Analgesic action, inhibition action on phenylquinone writhing, % inhibition” value under setting [1] is 50%.
Regarding `O=S(=O)(N=C1CCCCN1CCc1ccccc1)c1cccnc1` [Compound W-17, 1-Phenylethylpiperidylidene-2-(3-pyridyl)sulfonamide], the “Analgesic (agonist) activity, in words” value is “active analgesics, being comparable to morphine sulfate”. Under “dose 0.20 mg/kg”, the “Analgesic action, inhibition action on phenylquinone writhing, % inhibition” value is given as 65%.
Consider `CN1CCCCC1=NS(=O)(=O)c1cccc(N)c1` [Compound W-10, 1-Methylpiperidylidene-2-(3-aminophenyl)sulfonamide], for which the “Analgesic (agonist) activity, in words” value was “active analgesics, being comparable to morphine sulfate” and the “Analgesic action … dose giving 50 % inhibition” value came to 0.0017 mg/kg. Further, the “Analgesic action, inhibition action on phenylquinone writhing, % inhibition” value under setting [1] amounted to 50%.
Turning to `CC(C)CN1CCCCC1=NS(=O)(=O)c1ccc(Cl)cc1` [Compound W-29, 1-Isobutylpiperidylidene-2-(4-chlorophenyl)sulfonamide], the “Analgesic action … dose giving 50 % inhibition” value was 2.0 mg/kg. In addition, the “Analgesic action, inhibition action on phenylquinone writhing, % inhibition” value (dose 2.0 mg/kg (Table 3)) was found to be 50%.
Take `CC(C)CN1CCCCC1=NS(=O)(=O)c1cccnc1` [Compound W-31, 1-Isobutylpiperidylidene-2-(3-pyridyl)sulfonamide]: under “dose 2.0 mg/kg (Table 3)”, the “Analgesic action, inhibition action on phenylquinone writhing, % inhibition” value is recorded as 65%.
As to `COc1ccc(S(=O)(=O)N=C2CCCCN2C)cc1` [Compound W-4, 1-Methylpiperidylidene-2-(4-methoxyphenyl)sulfonamide], the “Analgesic (agonist) activity, in words” value is listed as “active analgesics, being comparable to morphine sulfate” and the “Analgesic action … dose giving 50 % inhibition” value came out at 0.002 mg/kg. Moreover, under setting [1], the “Analgesic action, inhibition action on phenylquinone writhing, % inhibition” value worked out at 50%.
Regarding `CC(=O)Nc1ccc(S(=O)(=O)N=C2CCCCN2C)cc1` [Compound W-12, 1-Methylpiperidylidene-2-(4-acetamidophenyl)sulfonamide], the “Analgesic action … dose giving 50 % inhibition” value is on record as 1.2 mg/kg. In addition, under setting [1], the “Analgesic action, inhibition action on phenylquinone writhing, % inhibition” value turned out to be 50%.
With `CN1CCCCC1=NC#N` [Compound W-13, 1-Methylpiperidylidene-2-cyanamide], the “Analgesic action … dose giving 50 % inhibition” value was determined as 6.0 mg/kg. Moreover, the “Analgesic action, inhibition action on phenylquinone writhing, % inhibition” value under setting [1] came to 50%.
`O=[N+]([O-])c1ccc(CCN2CCCCC2=NS(=O)(=O)c2ccc(Cl)cc2)cc1` [Compound W-18, 1-(4-Nitrophenylethyl)piperidylidene-2-(4-chlorophenyl)sulfonamide]: under setting [1], the “Analgesic action, inhibition action on phenylquinone writhing, % inhibition” value came out at 50%.
In the case of `CN1CCCCC1=NS(C)(=O)=O` [Compound W-1, 1-Methylpiperidylidene-2-methanesulfonamide], the “Analgesic action … dose giving 50 % inhibition” value amounted to 108.0 mg/kg. Moreover, the “Analgesic action, inhibition action on phenylquinone writhing, % inhibition” value under setting [1] was 50%.
For `Nc1ccc(CCN2CCCCC2=NS(=O)(=O)c2ccc(Cl)cc2)cc1` [Compound W-19, 1-(4-Aminophenylethyl)piperidylidene-2-(4-chlorophenyl)sulfonamide], under setting [1], the “Analgesic action, inhibition action on phenylquinone writhing, % inhibition” value came to 50%.
For the compound `CN1CCCCC1=NS(=O)(=O)c1ccccc1` [Compound W-2, 1-Methylpiperidylidene-2-benzenesulfonamide], the “Analgesic action … dose giving 50 % inhibition” value is recorded as 68.0 mg/kg. Besides, the “Analgesic action, inhibition action on phenylquinone writhing, % inhibition” value under setting [1] is recorded as 50%.
For the compound `Nc1ccc(S(=O)(=O)N=C2CCCCN2CC2CC2)cc1` [Compound W-21, 1-Cyclopropylmethylpiperidylidene-2-(4-aminophenyl)sulfonamide], the “Analgesic action, inhibition action on phenylquinone writhing, % inhibition” value (dose 2.0 mg/kg (Table 3)) was found to be 49%.
For the compound `Nc1ccc(S(=O)(=O)N=C2CCCCN2CCc2ccccc2)cc1` [Compound W-16, 1-Phenylethylpiperidylidene-2-(4-aminophenyl)sulfonamide], the “Analgesic (agonist) activity, in words” value was “active analgesics, being comparable to morphine sulfate”. Further, for the setting “dose 0.20 mg/kg”, the “Analgesic action, inhibition action on phenylquinone writhing, % inhibition” value is reported as 56%.
For `CC(C)CN1CCCCC1=NS(=O)(=O)c1ccc(N)cc1` [Compound W-30, 1-Isobutylpiperidylidene-2-(4-aminophenyl)sulfonamide], the “Analgesic action, inhibition action on phenylquinone writhing, % inhibition” value (dose 2.0 mg/kg (Table 3)) is 59%.
As to `CN1CCCCC1=NS(=O)(=O)c1ccccc1[N+](=O)[O-]` [Compound W-8, 1-Methylpiperidylidene-2-(2-nitrophenyl)sulfonamide], the “Analgesic (agonist) activity, in words” value is “active analgesics, being comparable to morphine sulfate” and the “Analgesic action … dose giving 50 % inhibition” value is listed as 0.0018 mg/kg. The “Analgesic action, inhibition action on phenylquinone writhing, % inhibition” value under setting [1] was determined as 50%.
For the compound `CN1CCCC(Br)C1=NC#N` (racemic) [Compound 0-1, 3-Bromo-1-methylpiperidylidene-2-cyanamide], the “Analgesic action … dose giving 50 % inhibition” value is 0.7 mg/kg. Further, the “Analgesic action, inhibition action on phenylquinone writhing, % inhibition” value under setting [1] was 50%.
Consider `CCCN1CCCCC1=NS(=O)(=O)c1cccnc1` [Compound W-28, 1-n-Propylpiperidylidene-2-(3-pyridyl)sulfonamide], for which the “Analgesic action, inhibition action on phenylquinone writhing, % inhibition” value (dose 2.0 mg/kg (Table 3)) stood at 82%.
Regarding `CN1CCCCC1=NS(=O)(=O)c1ccccc1N` [Compound W-11, 1-Methylpiperidylidene-2-(2-aminophenyl)sulfonamide], the “Analgesic (agonist) activity, in words” value is “active analgesics, being comparable to morphine sulfate” and the “Analgesic action … dose giving 50 % inhibition” value was found to be 0.00024 mg/kg. The “Analgesic action, inhibition action on phenylquinone writhing, % inhibition” value under setting [1] was 50%.
For `Cc1ccc(S(=O)(=O)N=C2CCCCN2C)cc1` [Compound W-5, 1-Methylpiperidylidene-2-(4-methylphenyl)sulfonamide], the “Analgesic action … dose giving 50 % inhibition” value was determined as 2.4 mg/kg. Further, the “Analgesic action, inhibition action on phenylquinone writhing, % inhibition” value under setting [1] came out at 50%.
In the case of `O=S(=O)(N=C1CCCCN1CC1CCC1)c1cccnc1` [Compound W-25, 1-Cyclobutylmethylpiperidylidene-2-(3-pyridyl)sulfonamide], the “Analgesic action, inhibition action on phenylquinone writhing, % inhibition” value (dose 0.20 mg/kg) is recorded as 69%.
As to `CCC(=O)O[C@](Cc1ccccc1)(c1ccccc1)[C@H](C)CN(C)C` [Dextropropoxyphene (TM), reference compound], the “Analgesic action … dose giving 50 % inhibition” value is recorded as 56.0 mg/kg. Moreover, the “Analgesic action, inhibition action on phenylquinone writhing, % inhibition” value under setting [1] was 50%.
As for `CCCN1CCCCC1=NS(=O)(=O)c1ccc(N)cc1` [Compound W-27, 1-n-Propylpiperidylidene-2-(4-aminophenyl)sulfonamide], the “Analgesic action, inhibition action on phenylquinone writhing, % inhibition” value (dose 2.0 mg/kg (Table 3)) came out at 59%.
Turning to `O=S(=O)(N=C1CCCCN1CCc1ccccc1)c1ccc(Cl)cc1` [Compound W-15, 1-Phenylethylpiperidylidene-2-(4-chlorophenyl)sulfonamide], the “Analgesic (agonist) activity, in words” value is given as “active analgesics, being comparable to morphine sulfate” and the “Analgesic action … dose giving 50 % inhibition” value is 0.007 mg/kg. The “Analgesic action, inhibition action on phenylquinone writhing, % inhibition” value under setting [1] came out at 50%.
Turning to `CN1CCCCC1=NS(=O)(=O)c1ccc(N)cc1` [Compound W-9, 1-Methylpiperidylidene-2-(4-aminophenyl)sulfonamide], the “Analgesic (agonist) activity, in words” value is on record as “active analgesics, being comparable to morphine sulfate” and the “Analgesic action … dose giving 50 % inhibition” value is 0.007 mg/kg. For the same compound, the “Analgesic action, inhibition action on phenylquinone writhing, % inhibition” value under setting [1] stood at 50%.
Consider `C/C=C/N1CCCCC1=NS(=O)(=O)c1ccc(Cl)cc1` [Compound W-32, E-1-(1-Propenyl)piperidylidene-2-(4-chlorophenyl)sulfonamide], for which the “Analgesic action … dose giving 50 % inhibition” value is on record as 0.013 mg/kg. For the same compound, under setting [1], the “Analgesic action, inhibition action on phenylquinone writhing, % inhibition” value was found to be 50%.
For the compound `CN1CCCCC1=NS(=O)(=O)c1ccc(Cl)cc1` [Compound W-3, 1-Methylpiperidylidene-2-(4-chlorophenyl)sulfonamide], the “Analgesic (agonist) activity, in words” value is given as “active analgesics, being comparable to morphine sulfate” and the “Analgesic action … dose giving 50 % inhibition” value was determined as 0.0038 mg/kg. For the setting “2.0 mg/kg sc”, the “% Inhibn, control (single agent) in antagonist study” value turned out to be 97%. The “% Inhibn, control (single agent) in antagonist study” value (5.0 mg/kg sc) is 100%. For the same compound, under setting [1], the “Analgesic action, inhibition action on phenylquinone writhing, % inhibition” value came out at 50%.
With `CN1CCCCC1=NS(=O)(=O)c1cccc([N+](=O)[O-])c1` [Compound W-7, 1-Methylpiperidylidene-2-(3-nitrophenyl)sulfonamide], the “Analgesic (agonist) activity, in words” value is reported as “active analgesics, being comparable to morphine sulfate” and the “Analgesic action … dose giving 50 % inhibition” value stood at 0.0028 mg/kg. Besides, under setting [1], the “Analgesic action, inhibition action on phenylquinone writhing, % inhibition” value came out at 50%.
Consider `O=S(=O)(N=C1CCCCN1CC1CCC1)c1ccc(Cl)cc1` [Compound W-23, 1-Cyclobutylmethylpiperidylidene-2-(4-chlorophenyl)sulfonamide], for which the “Analgesic action … dose giving 50 % inhibition” value is 0.01 mg/kg. Besides, under setting [1], the “Analgesic action, inhibition action on phenylquinone writhing, % inhibition” value came to 50%.
For `CN1CCCCC1=NS(=O)(=O)c1ccc([N+](=O)[O-])cc1` [Compound W-6, 1-Methylpiperidylidene-2-(4-nitrophenyl)sulfonamide], the “Analgesic (agonist) activity, in words” value is “active analgesics, being comparable to morphine sulfate” and the “Analgesic action … dose giving 50 % inhibition” value is given as 0.0028 mg/kg. Further, the “Analgesic action, inhibition action on phenylquinone writhing, % inhibition” value under setting [1] was found to be 50%.
